Reference: US20190328869A1, “IMMUNOTHERAPEUTIC PRODUCT AND MDSC MODULATOR COMBINATION THERAPY” (Transgene SA, priority 2016, published 2019)

Assays:
melanoma = melanoma bearing mice; cited from earlier work
HBV DNA (AAV2/8-HBV) = experiment: Serum HBV DNA (viral load) by qPCR in HBV-persistent mice; type: in vivo, C57BL/6J mice; settings: sildenafil only 5, 20 or 80 mg/kg/day (groups b to d), over the experiment
Procedure: Graph A illustrates the median level of HBsAg determined in the serum of groups of 10 mice (groups a to h) treated with sildenafil at 5 mg/kg/day (group b), at 20 mg/kg/day (group c), or at 80 mg/kg/day (group d) alone, or with AdTG18201 (group e) alone or with a combination of AdTG18201 and sildenafil (at 5, 20, or 80 mg/kg/day, groups f, g and h, respectively). The control group a is untreated. The Y-axis indicates the median HBsAg level (ng/mL) for each group and the X-axis the time (number of days post-AAV2/8-HBV injection). Graph B illustrates the median level of HBV DNA determined in the serum of the same groups of mice by PCR. […]
The HBV persistent mice used in the study were described by Dion et al. (2013, J Virol, 87(10):5554-63). […] This allows the analysis of HBV-specific viral parameters (HBsAg, HBeAg, HBcAg and viremia) as well as immunological read-outs (ICS, ELISpot or humoral immune responses). […]
HBV DNA copy number was determined in samples using the PrimerDesign™ Genesig Advanced Kit for Hepatitis B (ref. Path-HBV, PrimerDesign) and the 7500 real time system from Applied Biosystems. Data were analyzed using the 7500 System SDS software v2.0.6. […]
The Quantitect Multiplex PCR kit (ref. 204545, Qiagen) was used to carry out the qPCR reactions. […]
The limit of quantification (LOQ) was 100 DNA copies per reaction and the limit of detection (LOD) was 10 copies per reaction. […]

anti-HBc antibodies = experiment: Anti-HBc antibody level by ELISA in HBV-persistent mice; type: in vivo, C57BL/6J mice; settings: serum 1/2000, up to day 76; sildenafil 20 mg/kg/day D31-59 or D48-76
Text: Graphs A-F illustrate anti-HBc antibody levels determined respectively in individual mice of the six study groups 1-6. Individual mice are shown as thin line and the group mean titers as bold dotted black line. In all graphs the Y-axis indicates the anti-HBc levels (OD450) and the X-axis the time (number of days post-AAV2/8-HBV injection). Time points of immunization (D36, D43, D50) are shown by a dashed line and the period of sildenafil treatment is shown by a horizontal bar on the top of the graph.
The HBV persistent mice used in the study were described by Dion et al. (2013, J Virol, 87(10):5554-63). The model is based on the introduction in mice of an adeno-associated virus (AAV) encoding for a full length HBV genome (AAV2/8-HBV) and causing the production of infectious HBV particles in mouse livers. This allows the analysis of HBV-specific viral parameters (HBsAg, HBeAg, HBcAg and viremia) as well as immunological read-outs (ICS, ELISpot or humoral immune responses). […]
96-well Immulon 4HBX plates (Thermo Scientific) were coated overnight at +4° C. with 100 μL of recombinant HBc (Prospec) diluted to 1 μg/mL in BupH Carbonate-Bicarbonate buffer (Thermo Scientific Cat#28382). […] Ten minutes later, reaction was stopped by adding of 100 μL per well of 1N HCl and optic density was measured at 450 nm with Tecan Infinity 200 reader. […]

Compound: CCCc1nn(C)c2c(=O)nc(-c3cc(S(=O)(=O)N4CCN(C)CC4)ccc3OCC)[nH]c12 [sildenafil, 1-[[3-(4,7-dihydro-1-methyl-7-oxo-3-propyl-1H-pyrazolo[4,3-d]pyrimidin-5-yl)-4-ethoxyphenyl]sulfonyl]-4-methylpiperazine]
- concentration of inflammatory mediators (IL-1β, IL-6, VEGF, GM-CSF, MCP-1) in melanoma lesions (melanoma): significantly diminished
- tumor progression (melanoma): delay tumor progression
- median level of viral DNA (HBV DNA (AAV2/8-HBV)): around 10^5 copies/mL serum
- anti-HBc antibodies induction (OD450) (anti-HBc antibodies): no anti-HBc antibodies were induced
